# Source: ChEMBL document CHEMBL1122041, “Molecular structures of 2,4-diaminopyrimidine antifolates with antineoplastic activity” (J Med Chem, 1982)
# pIC50, pKi: −log10 of the molar value.
# Experiments:
# TA3 [1] = assay: Evaluated for the concentration needed for 50% growth inhibition of mouse mammary adenocarcinoma cells (TA3) in culture.; type: functional; conditions: TA3, read-out: ID50
# Dihydrofolate reductase [2] = target: T1, Dihydrofolate reductase (Homo sapiens, UniProt P00374); assay: Competitive inhibition of mammalian dihydrofolate reductase
# T1 sequence (P00374 whole entry): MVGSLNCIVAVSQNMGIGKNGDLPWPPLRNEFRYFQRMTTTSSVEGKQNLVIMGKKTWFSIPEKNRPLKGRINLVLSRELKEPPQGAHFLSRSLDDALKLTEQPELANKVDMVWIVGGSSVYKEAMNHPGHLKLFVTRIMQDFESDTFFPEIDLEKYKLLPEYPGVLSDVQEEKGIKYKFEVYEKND
# TA3 [3] = assay: Evaluated for the concentration needed for 50% growth inhibition of mouse mammary adenocarcinoma cells (TA3) in culture; type: functional; conditions: TA3, read-out: ID50
# Dihydrofolate reductase [4] = target: T1, Dihydrofolate reductase; assay: Noncompetitive inhibition of mammalian Dihydrofolate reductase
Compound,pIC50 (TA3 [1]),pIC50 (TA3 [3]),also measured
Cc1nc(N)nc(N)c1C12CC3CC(CC(C3)C1)C2,8.22,,
Cc1nc(N)nc(N)c1NC(=O)C12CC3CC(CC(C3)C1)C2,,,pKi (Dihydrofolate reductase [2]): 8.05
Cc1nc(N)nc(N)c1-c1ccc2ccccc2c1,,7.15,
CCc1nc(N)nc(N)c1C12CC3CC(CC(C3)C1)C2,9.60,,
Cc1nc(N)nc(N)c1-c1cccc2ccccc12,,,pKi (Dihydrofolate reductase [4]): 4.25
CN(Cc1cnc2nc(N)nc(N)c2n1)c1ccc(C(=O)N[C@@H](CCC(=O)O)C(=O)O)cc1 [METHOTREXATE],,8.10,
